In data set [1] the test system is HPV-11. The data set can be described thus: HPV transient replication assay (E1/E2 expression vectors plus ori plasmid, qPCR of replicated DNA). It is filed as cell-based, human papillomavirus. Particulars: for SI90 (CC50/EC90): selectivity index. The text has this: (§1) Specifically, in these tests, vectors for expression of an HPV genotype-matched set of viral El and E2 proteins (derived from virus strain HPV-11) along with an HPV ori-containing plasmid were cotransfected into HEK293 cells. […] Low molecular weight DNA was harvested 2 days post-transfection and digested with Dpnl and exonuclease Ill to remove unreplicated transfected plasmid DNA. The replicated DNA was then subjected to real time qPCR (quantitative polymerase chain reaction) analyses in triplicate. Two controls were performed. One was to omit the El expression vector to provide a background amount of undigested and unreplicated DNA. The other, positive control was treatment with the known inhibitor cidofovir, as mentioned above. A toxicity assay based upon cell viability at the time of harvest on day 2 was performed alongside each transient replication assay in 293 cells. The test compounds were added 4 hours post transfection for a total exposure of 44 hours. More than 1×10^5 cells were scored in a BioRad Automatic Cell Counter, with a determination of the total numbers, the numbers of trypan blue stained (dead) cells, and the % of dead cells.

The nature of data set [2]: toxicity assay based upon cell viability (trypan blue) alongside the replication assay. The conditions noted are these: human.
Source text: as §1

The record followed here is patent US20140011839A1, “COMPOSITIONS AND METHODS FOR TREATING AND INHIBITING VIRAL INFECTIONS” (priority 2012, published 2014).

Take `CCN(CC)Cc1cc(Nc2ccnc3cc(Cl)ccc23)ccc1O` [Amodiaquine, amodiaquine]: in data set [1], the “SI90 (CC50/EC90)” value is given as more than 2. In data set [2], this molecule returned a CC50 at 44 h of more than 100 µM.

Turning to `Nc1ccn(C[C@@H](CO)OCP(=O)(O)O)c(=O)n1` [Cidofovir, cidofovir], the EC90 in data set [1] (Human papillomavirus, HPV-11 E1/E2 + ori plasmid in HEK293 cells, compounds tested at 1, 10, 100 μM, 44 hours exposure, read-out: EC90 (concentration that reduces viral replication by 90%)) is more than 200 µM. For the same molecule, the “SI90 (CC50/EC90)” value in data set [1] was 1. The molecule also had a CC50 at 44 h in data set [2] of more than 200 µM.
